# Reference: ChEMBL document CHEMBL1201862, “PubChem BioAssay data set” (2004)
#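 Briefly, cells in 96-well plates were exposed to five compound concentrations for 48 h, and endpoints were estimated by linear interpolation. GI50 = concentration required for 50% inhibition of growth.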 Activity calls are given as the source filed them. No stated cut-off is given here; in the data, active = GI50 up to about 1.1 µM and inactive = higher.
# Columns and labels:
# Assay in all cases: growth of human tumour cells (NCI), 48 h
# [1] = system: HCC 2998
# [2] = system: LOX IMVI
# [3] = system: M14
# [4] = system: MOLT-4
# [5] = system: Malme-3M
# [6] = system: NCI-H23
# [7] = system: OVCAR-8
# [8] = system: SF-295
# [9] = system: SK-MEL-28
# [10] = system: SK-MEL-2
# [11] = system: TK-10
# [12] = system: U-251
# [13] = system: UACC-257
# [14] = system: UO-31
# [15] = system: COLO 205
# [16] = system: DU-145
# [17] = system: MCF7
# [18] = system: SW-620
# [19] = system: T47D
# [20] = system: Hs-578T
Compound,GI50 [1],GI50 [2],GI50 [3],GI50 [4],GI50 [5],GI50 [6],GI50 [7],GI50 [8],GI50 [9],GI50 [10],GI50 [11],GI50 [12],GI50 [13],GI50 [14],GI50 [15],GI50 [16],GI50 [17],GI50 [18],GI50 [19],GI50 [20]
CC(Oc1ccc(OCC2CCCCC2)cc1)C(=O)OCC(=O)c1ccc(-c2ccccc2)cc1 (stereo not given),> 100 µM (inactive),> 100 µM (inactive),> 100 µM (inactive),> 100 µM (inactive),> 100 µM (inactive),> 100 µM (inactive),> 100 µM (inactive),> 100 µM (inactive),> 100 µM (inactive),> 100 µM (inactive),> 100 µM (inactive),> 100 µM (inactive),> 100 µM (inactive),> 100 µM (inactive),–,–,–,–,–,–
Cc1cccc(/C=N/NC(=S)N2CCCC2)n1,0.78 µM (active),0.267 µM (active),0.133 µM (active),0.0687 µM (active),0.0286 µM (active),0.215 µM (active),0.324 µM (active),0.266 µM (active),1.02 µM (active),1.01 µM (active),0.177 µM (active),0.366 µM (active),0.486 µM (active),0.297 µM (active),0.325 µM (active),0.373 µM (active),2.91 µM (inactive),0.188 µM (active),< 0.0306 µM (active),–
COc1cc2c(cc1OC)[C@]1(O)C(=O)c3ccc4c(c3O[C@@H]1CO2)C[C@H](C(C)(C)O)O4,> 100 µM (inactive),11.1 µM (inactive),> 100 µM (inactive),48.9 µM (inactive),8.89 µM (inactive),2.65 µM (inactive),85.3 µM (inactive),–,> 100 µM (inactive),> 100 µM (inactive),> 100 µM (inactive),> 100 µM (inactive),6.95 µM (inactive),7.29 µM (inactive),> 100 µM (inactive),–,–,> 100 µM (inactive),–,–
N#CCCc1nc2ccc(Br)cc2c(=O)n1CCO,> 100 µM (inactive),> 100 µM (inactive),> 100 µM (inactive),> 100 µM (inactive),> 100 µM (inactive),> 100 µM (inactive),> 100 µM (inactive),> 100 µM (inactive),> 100 µM (inactive),> 100 µM (inactive),> 100 µM (inactive),–,> 100 µM (inactive),> 100 µM (inactive),> 100 µM (inactive),–,–,> 100 µM (inactive),–,–
Cc1cccc2c1Oc1ncccc1C2NC(=O)CN(C)C (stereo not given),> 10 µM (inactive),> 10 µM (inactive),> 10 µM (inactive),> 10 µM (inactive),> 10 µM (inactive),> 10 µM (inactive),> 10 µM (inactive),> 10 µM (inactive),–,> 10 µM (inactive),> 10 µM (inactive),> 10 µM (inactive),> 10 µM (inactive),> 10 µM (inactive),–,–,> 10 µM (inactive),> 10 µM (inactive),–,–
O=P1(Oc2ccccc2)NCc2ncccc2O1 (stereo not given),> 100 µM (inactive),> 100 µM (inactive),> 100 µM (inactive),> 100 µM (inactive),–,> 100 µM (inactive),> 100 µM (inactive),> 100 µM (inactive),> 100 µM (inactive),> 100 µM (inactive),–,> 100 µM (inactive),> 100 µM (inactive),> 100 µM (inactive),> 100 µM (inactive),> 100 µM (inactive),> 100 µM (inactive),> 100 µM (inactive),> 100 µM (inactive),–
COc1ccc(-c2nc3cc(F)ccc3s2)cc1O,2.57 µM (inactive),21.1 µM (inactive),26.5 µM (inactive),> 100 µM (inactive),35.1 µM (inactive),29.3 µM (inactive),26.5 µM (inactive),22.5 µM (inactive),75.7 µM (inactive),27.9 µM (inactive),16.2 µM (inactive),30.1 µM (inactive),24.9 µM (inactive),30.8 µM (inactive),28.7 µM (inactive),38 µM (inactive),0.668 µM (active),87.9 µM (inactive),0.514 µM (active),–
CC1=C(/C(C)=N/NS(=O)(=O)c2ccc(C)cc2)Sc2ccccc2N1,> 100 µM (inactive),70.8 µM (inactive),> 100 µM (inactive),52.7 µM (inactive),77.3 µM (inactive),89.3 µM (inactive),> 100 µM (inactive),50.5 µM (inactive),> 100 µM (inactive),94.2 µM (inactive),> 100 µM (inactive),47.9 µM (inactive),65.5 µM (inactive),57 µM (inactive),48.1 µM (inactive),–,–,> 100 µM (inactive),–,–
CCOc1ccc(N2C(=O)NC3(c4ccccc4)N(C)C(=O)N(C)C23c2ccccc2)cc1 (stereo not given),–,> 100 µM (inactive),> 100 µM (inactive),30.4 µM (inactive),> 100 µM (inactive),> 100 µM (inactive),61.1 µM (inactive),97.3 µM (inactive),> 100 µM (inactive),> 100 µM (inactive),–,> 100 µM (inactive),> 100 µM (inactive),92.9 µM (inactive),> 100 µM (inactive),> 100 µM (inactive),46.2 µM (inactive),> 100 µM (inactive),–,–
Fc1cc(-c2ncc(Cl)cc2Cl)c2cccccc1-2,> 100 µM (inactive),> 100 µM (inactive),82.6 µM (inactive),–,> 100 µM (inactive),> 100 µM (inactive),> 100 µM (inactive),> 100 µM (inactive),–,–,> 100 µM (inactive),–,> 100 µM (inactive),> 100 µM (inactive),> 100 µM (inactive),> 100 µM (inactive),35.7 µM (inactive),–,–,> 100 µM (inactive)
Cc1ccc(S(=O)(=O)N[C@H](C(=O)O)c2ccccc2)cc1,> 100 µM (inactive),> 100 µM (inactive),> 100 µM (inactive),58.6 µM (inactive),> 100 µM (inactive),> 100 µM (inactive),> 100 µM (inactive),> 100 µM (inactive),> 100 µM (inactive),> 100 µM (inactive),> 100 µM (inactive),> 100 µM (inactive),> 100 µM (inactive),> 100 µM (inactive),> 100 µM (inactive),–,–,> 100 µM (inactive),–,–
NC(=O)NC1C(C(N)=O)N(Cc2ccccc2)C(=O)N1Cc1ccccc1 (stereo not given),> 100 µM (inactive),> 100 µM (inactive),> 100 µM (inactive),> 100 µM (inactive),> 100 µM (inactive),> 100 µM (inactive),> 100 µM (inactive),> 100 µM (inactive),> 100 µM (inactive),> 100 µM (inactive),> 100 µM (inactive),> 100 µM (inactive),> 100 µM (inactive),> 100 µM (inactive),> 100 µM (inactive),–,–,> 100 µM (inactive),–,–
Cc1cccc(C(=O)O)c1C(=O)c1cccc2ccccc12,> 100 µM (inactive),> 100 µM (inactive),> 100 µM (inactive),33.1 µM (inactive),> 100 µM (inactive),> 100 µM (inactive),> 100 µM (inactive),> 100 µM (inactive),> 100 µM (inactive),98.2 µM (inactive),> 100 µM (inactive),> 100 µM (inactive),> 100 µM (inactive),> 100 µM (inactive),> 100 µM (inactive),–,–,> 100 µM (inactive),–,–
CCCCCCCCCCCC(=O)OCC1OC(n2cc(F)c(=O)[nH]c2=O)C(NC(=O)OCc2ccccc2)C(O)C1O (stereo not given),18.4 µM (inactive),18.4 µM (inactive),19.6 µM (inactive),21.2 µM (inactive),21 µM (inactive),35.3 µM (inactive),21.2 µM (inactive),27.9 µM (inactive),19.1 µM (inactive),19.1 µM (inactive),38.8 µM (inactive),19 µM (inactive),23.4 µM (inactive),30.3 µM (inactive),21.2 µM (inactive),–,–,20.6 µM (inactive),–,–
O=C(O)CSc1nnc2c3ccccc3c3ccccc3c2n1,52.6 µM (inactive),41.6 µM (inactive),47.1 µM (inactive),–,30 µM (inactive),> 100 µM (inactive),50.4 µM (inactive),41.8 µM (inactive),> 100 µM (inactive),> 100 µM (inactive),> 100 µM (inactive),46.8 µM (inactive),> 100 µM (inactive),33.6 µM (inactive),> 100 µM (inactive),57.9 µM (inactive),40.3 µM (inactive),42.7 µM (inactive),–,70.6 µM (inactive)
COc1ccc(C)cc1NC(=S)C#N,44.6 µM (inactive),> 100 µM (inactive),30.5 µM (inactive),–,–,33.3 µM (inactive),27.9 µM (inactive),31.9 µM (inactive),> 100 µM (inactive),29.2 µM (inactive),31.9 µM (inactive),> 100 µM (inactive),35.3 µM (inactive),–,> 100 µM (inactive),> 100 µM (inactive),32.2 µM (inactive),> 100 µM (inactive),> 100 µM (inactive),–
CC1(C)CC(=O)c2c(N)n[nH]c2C1,> 100 µM (inactive),> 100 µM (inactive),> 100 µM (inactive),> 100 µM (inactive),> 100 µM (inactive),> 100 µM (inactive),> 100 µM (inactive),> 100 µM (inactive),> 100 µM (inactive),> 100 µM (inactive),–,> 100 µM (inactive),> 100 µM (inactive),> 100 µM (inactive),> 100 µM (inactive),> 100 µM (inactive),> 100 µM (inactive),> 100 µM (inactive),–,–
